Measured values published in patent publication US20240139210A1, “TREATMENT OF NF-KB-MEDIATED DISEASE” (ReveraGen BioPharma, Inc., priority 2020, published 2024).

Tests used:
Assay type in all cases: in vivo, human
participants with DMD [1] = assay: CINRG DNHS corticosteroid-treated external comparator; conditions: vamorolone versus corticosteroid-treated DNHS, 18 months
Excerpt: The consecutive vamorolone trials (VBP15-002, VBP15-003, VBP15-LTE) were open-label with no placebo comparator. Corticosteroid-naïve and corticosteroid-treated DMD participant comparators were group-matched participants from the CINRG DNHS (NCT00468832). The CINRG DNHS was an observational, prospective case-control study of 551 participants (440 with DMD, 111 healthy peers). For group matching between vamorolone-treated participants and CINRG DNHS participants, prespecified criteria were defined for matching within the interim statistical analysis plan (iSAP). Age-matched CINRG DNHS participants included those continuously corticosteroid-naïve over an 18-month period (n=19) or continuously corticosteroid-treated over an 18-month period (n=68). For the 68 corticosteroid-treated participants, as this was an observational cohort, corticosteroid doses and regimens varied based on clinician discretion. Although all 68 participants were treated for 18 months continuously, the age at initiation of corticosteroids varied. Thus, the total duration of corticosteroid treatment was longer than 18 months for most participants. […]
The incidences of physician-reported AEs typically for corticosteroid treatment were determined for participants that had been treated with vamorolone 6.0 mg/kg/day (for any duration), taken from the March 2019 Data Safety Update Report (DSUR) (pharmacovigilance report). […]

participants with DMD [2] = assay: VBP15-003/VBP15-LTE open-label trials, motor outcomes over 18 months; conditions: for TTCLIMB velocity, LS mean difference (SE), ANCOVA / TTSTAND velocity, LS mean difference (SE), ANCOVA / TTRW velocity, LS mean difference (SE), ANCOVA: vamorolone 18 months vs corticosteroid-naïve DNHS
Excerpt: Assessments of efficacy were motor outcomes (primary outcome: time to stand from supine [TTSTAND]; secondary outcomes: time to run/walk 10 meters [TTRW], time to climb four stairs [TTCLIMB], distance covered in 6-minute walk test [6MWT], and the North Star Ambulatory Assessment [NSAA]). 6MWT and NSAA were not assessed in most CINRG DNHS participants and were not compared to vamorolone-treated participants. According to standard operating procedures, clinical evaluators were trained to harmonize the CINRG vamorolone, CINRG DNHS, and CINRG prednisone studies. Reliability of these outcomes (percent coefficient of variation) has been reported for the VBP15-002/VBP15-003 studies. Assessments were done at baseline (VBP15-002 entry), 24 weeks (VBP15-003 last visit), and 18 months (VBP15-LTE midpoint assessment at 12 months).
Only participants completing VBP15-002 and VBP15-003 were eligible to enroll in VBP15-LTE. Participants received vamorolone at 1 of 4 dose levels (0.25, 0.75, 2.0, or 6.0 mg/kg/day) and at the same dose level in both the 4-week VBP15-002 trial and the 24-week VBP15-003 trial. If participants, their families, and their physicians wished to continue vamorolone treatment upon exiting the VBP15-003 trial, they were offered participation in the 24-month long-term extension (VBP15-LTE). The last visit of the VBP15-003 trial was commensurate with the first visit of the VBP15-LTE trial. In all studies, study medication was provided as 4% flavored liquid suspension and was dosed according to body weight and given once daily in the morning with food.
Vamorolone-treated participants were initially enrolled into VBP15-002 and VBP15-003 in 4 dose groups (0.25, 0.75, 2.0, and 6.0 mg/kg/day; groups A-D). Upon entering VBP15-LTE, vamorolone group A participants had 2 or 3 sequential dose escalations and were treated with 2.0 or 6.0 mg/kg/day for the last 3-9 months of the 18 months; group B participants had 1 or 2 dose escalations and were treated with 2.0 or 6.0 mg/kg/day for the last 9-11 months. Groups C and D were treated for 18 months at 2.0 or 6.0 mg/kg/day (S1 Fig).
The current study is the first to evaluate the longer-term tolerability, efficacy, and safety of vamorolone in DMD. […] Given the variable timing of dose escalations, it was prespecified that initial analyses of drug-related efficacy and safety would be limited to those participants who had 18 months of treatment with 2.0 mg/kg/day vamorolone or more (dose group C+dose group D; n=23). Outcomes for these participants were compared to a group-matched cohort from the CINRG DNHS over 18 months (corticosteroid-naïve, n=19; corticosteroid-treated, n=68). Participants were matched for age and treatment period (±1 month), matching criteria were prespecified in the statistical analysis plan. Two independent statisticians carried out the matching.
Statistical analyses were done on paired longitudinal outcome data using an analysis of covariance (ANCOVA) approach with change from baseline (VBP15-002) to month 18 (midpoint of VBP15-LTE). Baseline response and age were included as covariates. For the vamorolone-treated participants, age was calculated as (date of informed consent minus birthdate)/365.25. For the DNHS participants, age was calculated as (date of baseline visit used minus birthdate)/365.25. The baseline visit for a DNHS participant was the first visit. […] Timed function tests were analyzed as velocity scores to limit the impact of participants who could not perform the test (velocity=0). Velocity measures are variance-stabilizing transformations, suppressing extreme raw outliers from raw values in seconds; these help with distributional assumptions of the statistical models/tests used. Raw data (seconds) are also reported. Velocity scores for TTSTAND (event/second), TTRW (meters/second), and TTCLIMB (event/second) were inputted as 0 at the first response missing due to inability to perform the test. All other data were observed values only, without imputation. […]

boys with DMD = assay: CINRG 12-month prednisone clinical trial, external comparator; conditions: vamorolone 18-month treatment versus prednisone trial 12-month treatment
Method: As with the CINRG DNHS comparators, group-matching criteria were prespecified in the iSAP, and 2 independent statisticians carried out the participant matching. […] There was no corresponding 12-month assessment in vamorolone-treated participants. (Assessments of vamorolone-treated trial participants were 0, 3, 6, and 18 months).
Participants in the corticosteroid-treated CINRG DNHS group were treated for at least 18 months, but the total duration, dose, and regimens varied.

[3] = vamorolone 18 months vs corticosteroid-naïve participants

SMILES: C[C@@H]1C[C@H]2[C@@H]3CCC4=CC(=O)C=C[C@]4(C)C3=CC[C@]2(C)[C@@]1(O)C(=O)CO [Vamorolone, 17α,21-dihydroxy-16α-methylpregna-1,4,9(11)-triene-3,20-dione]
- Mean height percentile for age, LS mean difference (SE), ANCOVA (participants with DMD [1]): 15.86 percentile
- TTCLIMB velocity, LS mean difference (SE), ANCOVA (participants with DMD [2]): 0.059 (0.026) event/second
- TTSTAND velocity, LS mean difference (SE), ANCOVA (participants with DMD [2]): 0.042 (0.024) event/second
- TTRW velocity, LS mean difference (SE), ANCOVA (participants with DMD [2]; listed as Valmorolone): 0.286 (0.09) meters/second
- TTCLIMB velocity, LS mean difference (SE), ANCOVA (participants with DMD [2]; listed as vamorolone): 0.059 event/second
- TTRW velocity, LS mean difference (SE), ANCOVA (participants with DMD [2]; listed as vamorolone): 0.286 meters/second
- TTSTAND velocity, LS mean difference (SE), ANCOVA (participants with DMD [2]; listed as vamorolone): 0.042 event/second
- TTCLIMB, LS mean difference, ANCOVA (participants with DMD [2]; [3]): -0.34 s
- TTRW, LS mean difference, ANCOVA (participants with DMD [2]; [3]): -0.84 s
- TTSTAND, LS mean difference, ANCOVA (participants with DMD [2]; [3]): -1.15 s
- Mean height percentile for age, LS mean difference (SE), ANCOVA (boys with DMD): 10.37 percentile
